According to US20040010001A1, “Methods and compositions for modulating cell proliferation and cell death” (priority 1999, published 2004):
Like-named read-outs stand apart in the source and are kept apart here.

Assays:
[1] = test system: rat lung metastases, histocultures; assay: Drug effect in histocultures of rat lung metastases (inhibition of 3H-thymidine incorporation); assay type: cell-based
[2] = test system: Human prostate PC3 tumor cells; assay: Drug treatment and extracellular bFGF (ELISA), LDH release, cell number; assay type: cell-based; conditions: for Extracellular LDH, % of control / Extracellular bFGF, % of control / Extracellular concentration bFGF / bFGF:LDH ratio: 72 hours
Experimental: The experimental conditions are described briefly below. […] The remaining cell number at the end of treatment was counted using a Coulter counter. The extracellular bFGF concentration was measured using ELISA. The release of lactate dehydrogenase (LDH) into the extracellular culture medium is indicative of cell death and gives a measure of the release of cellular content into the culture medium. If the increase in extracellular bFGF level is due to the release of bFGF upon cell death and lysis, the increase in bFGF will be accompanied by an increase in LDH in the same extent. This would result in an higher bFGF level and a constant bFGF-to-LDH ratio. On the other hand, an increase in extracellular bFGF due to an increase in bFGF production and release of bFGF from cells by processes other than cell lysis will result in an higher bFGF level and an higher bFGF-to-LDH ratio.

[3] = test system: human prostate PC3-LN tumor cells; assay: cells; assay type: cell-based; conditions: read-out: IC50 in the monolayer cultures of PC3-LN cells
subcutaneous PC3 tumors = conditions: suramin 10 mg/kg, doxorubicin 5 mg/kg, twice weekly for 3 weeks
Experimental: Briefly, PC3 cells (5×10^6 cells) were injected subcutaneously.

rat MAT-LyLu tumor cells [4] = assay: Intracellular drug accumulation with or without CM or r-bFGF; conditions: unchanged with or without CM or r-bFGF; 10 nM paclitaxel, 100 nM doxorubicin, 500 nM 5-fluorouracil
rat MAT-LyLu tumor cells [5] = assay: Reversal of CM-induced resistance by FGF antibodies and suramin, BrdU incorporation; assay type: cell-based; conditions: Rattus norvegicus, read-out: IC50 in the presence of 1.6 micromolar suramin; CM of lung metastases histocultures; unchanged in the absence or presence of 5 microgram/ml anti-bFGF antibody
Experimental: The source of CM was lung histocultures for the aFGF experiment, and early monolayer lung cultures for the bFGF experiment. The study used four controls: no CM (left solid curves, open circles); addition of 5 μg/ml aFGF or bFGF antibody but no CM (inverted filled triangle, overlaps with the left control curve); addition of CM but no antibody (right solid curves, open square); addition of CM plus a nonspecific antibody, IgG (5 μg/ml, filled diamond, overlaps with the right CM-control curve). Dotted curves, from right to left, addition of aFGF or bFGF antibody concentrations of 0.05 μg/ml (filled circle); 0.1 μg/ml (filled square); 1 or 0.5 μg/ml (filled triangle); and 5 μg/ml (open inverted triangle). […] Similar results were also found for human PC3 prostate tumor cells.
The first study used specific inhibitors of extracellular aFGF and bFGF, i.e., monoclonal antibodies (FIG. 2A). […] In the presence of the active CM, the bFGF antibody produced a concentration-dependent reversal of the CM-induced chemoresistance, with complete reversal by 5 microgram/ml antibody, whereas a nonspecific antibody (i.e., non-immune rabbit IgG) had no effect. For aFGF, the antibody treatment partially reversed the CM-induced resistance; the maximum reversal was about 60% that was obtained with 1 microgram/ml antibody with no significant additional reversal at a 5-fold higher concentration. The second study evaluated the effect of removing aFGF and/or bFGF from the active CM by immunoprecipitation. Removal of bFGF abolished the resistance, whereas removal of aFGF only partially reversed the CM effect. These two studies indicate that both aFGF and bFGF were involved in the resistance, but had different roles.
This study was performed using the rat MAT-LyLu tumor cells as the model tumor cells and using doxorubicin and paclitaxel as the model anticancer agents. The CM used to induce resistance was collected from histocultures of lung metastases (see Table 1). Five microgram/ml anti-bFGF antibody was added.

human PC3 lung tumors = assay: Lung tumors established by direct injection of PC3 cells into the lungs of immunodeficient mice; assay type: in vivo; conditions: doxorubicin three doses of 10 mg/kg, suramin three doses of 20 mg/kg, day 12
Experimental: Animal care was in accordance with the guidelines at the Ohio State University. Several human tumor models were used, including (a) lung metastases derived from intravenous injection of human PC3-LN tumor cells, (b) lung tumors derived from direct injection of human PC3 cells in lungs, and (c) subcutaneously implanted PC3 tumors. Four studies were performed. In all studies, drug treatment was administered intravenously via a tail vein, after the tumor was established. The first and second studies used the intravenous PC3-LN lung metastasis model. Briefly, human PC3-LN cells ([…] in 0.1 ml physiologic saline) were injected intravenously, via a tail vein, into immunodeficient mice. […] Treatment was given twice weekly for three weeks. […] The lung surface area (counted as number of pixel) occupied by the tumor was calculated as a fraction of the total lung area, using Adobe PhotoShop. The number of tumor cells in residual tumors and the fraction of apoptotic cells in each tumor were also determined microscopically. […] This was determined by counting the number of non-apoptotic tumor cells in randomly selected microscopic fields at 400× magnification. […] In the case of combination therapy where fewer than 5 tumor nodules remained per animal, all residual cells (between 20 to 600 cells per animal) were counted.

[6] = test system: human PC3-LN lung metastases
Experimental: Animal care was in accordance with the guidelines at the Ohio State University. Several human tumor models were used, including (a) lung metastases derived from intravenous injection of human PC3-LN tumor cells, (b) lung tumors derived from direct injection of human PC3 cells in lungs, and (c) subcutaneously implanted PC3 tumors. Four studies were performed. In all studies, drug treatment was administered intravenously via a tail vein, after the tumor was established. The first and second studies used the intravenous PC3-LN lung metastasis model. Briefly, human PC3-LN cells ([…] in 0.1 ml physiologic saline) were injected intravenously, via a tail vein, into immunodeficient mice. […] Treatment was given twice weekly for three weeks. […] Three days after completion of drug treatments, animals were euthanized and their lungs removed, fixed in Bouin's solution to visualize tumor nodules, and then processed for histologic evaluation. […] The lung surface area (counted as number of pixel) occupied by the tumor was calculated as a fraction of the total lung area, using Adobe PhotoShop. The number of tumor cells in residual tumors and the fraction of apoptotic cells in each tumor were also determined microscopically. Because apoptotic cells disappear over time, a second measure of the extent of apoptosis was the density of non-apoptotic cells in the residual tumors. This was determined by counting the number of non-apoptotic tumor cells in randomly selected microscopic fields at 400× magnification. […] In the case of combination therapy where fewer than 5 tumor nodules remained per animal, all residual cells (between 20 to 600 cells per animal) were counted.

[7] = test system: normal rat intestinal epithelial cells (IEC6); assay: Protection of normal intestinal epithelial cells by aFGF/bFGF, BrdU incorporation; assay type: cell-based; conditions: drug 24 hours
Experimental: These cells were derived from normal, noncancerous intestinal epithelium. […] Drug effect was measured as the reduction of bromodeoxyuridine incorporation in treated cells relative to untreated controls.

[8] = test system: rat lymph node metastases, histocultures; assay: Drug effect in histocultures of rat lymph node metastases (inhibition of 3H-thymidine incorporation); assay type: cell-based
[9] = doxorubicin study: suramin 10 mg/kg, doxorubicin 5 mg/kg, intravenous twice weekly for three weeks
[10] = suramin 10 mg/kg, doxorubicin 5 mg/kg, intravenous twice weekly for three weeks
[11] = IEC-6, absence of aFGF and bFGF
[12] = IEC-6, pretreated with 1 ng/ml aFGF and 3 ng/ml bFGF for 96 hours
[13] = 24 h, read-out: Concentration producing 50% inhibition (data shown are the concentrations that produced 30% inhibition)
[14] = paclitaxel study: suramin 10 mg/kg, paclitaxel 15 mg/kg, intravenous twice weekly for three weeks

O=c1[nH]cc(F)c(=O)[nH]1 [5-Fluorouracil]
IC50 ([1]; Histocultures, Lung, 96 hours, read-out: Concentration producing 50% inhibition): 122000 ± 25000 nM
Remaining cell number at 72 hours (% of control) ([2]; drug concentration 2000 NM): 88%
Remaining cell number at 72 hours × 10^6 ([2]; drug concentration 2000 NM): 2.2 × 10^6
Extracellular LDH, % of control ([2]; drug concentration 2000 NM): 121 % of control
Extracellular bFGF, % of control ([2]; drug concentration 2000 NM): 139 % of control
Extracellular concentration bFGF ([2]; drug concentration 2000 NM): 8.37 pg/mL
bFGF:LDH ratio ([2]; drug concentration 2000 NM): 1.15
Remaining cell number at 72 hours (% of control) ([2]; drug concentration 6000 NM): 56%
Remaining cell number at 72 hours × 10^6 ([2]; drug concentration 6000 NM): 1.4 × 10^6
Extracellular LDH, % of control ([2]; drug concentration 6000 NM): 158 % of control
Extracellular bFGF, % of control ([2]; drug concentration 6000 NM): 189 % of control
Extracellular concentration bFGF ([2]; drug concentration 6000 NM): 11.35 pg/mL
bFGF:LDH ratio ([2]; drug concentration 6000 NM): 1.20
Remaining cell number at 72 hours (% of control) ([2]; drug concentration 20000 NM): 24%
Remaining cell number at 72 hours × 10^6 ([2]; drug concentration 20000 NM): 0.6 × 10^6
Extracellular LDH, % of control ([2]; drug concentration 20000 NM): 202 % of control
Extracellular bFGF, % of control ([2]; drug concentration 20000 NM): 296 % of control
Extracellular concentration bFGF ([2]; drug concentration 20000 NM): 17.8 pg/mL
bFGF:LDH ratio ([2]; drug concentration 20000 NM): 1.46

COc1cccc2c1C(=O)c1c(O)c3c(c(O)c1C2=O)C[C@@](O)(C(=O)CO)C[C@@H]3O[C@H]1C[C@H](N)[C@H](O)[C@H](C)O1 [Doxorubicin]
IC50 [3]: 17 nM
effect on tumor growth (subcutaneous PC3 tumors): reduced the tumor growth but did not cause tumor regression
plateau intracellular concentration (rat MAT-LyLu tumor cells [4]): 80 pmol/10^6 cells
IC50 (rat MAT-LyLu tumor cells [5]): 13 nM
tumor-free animals (human PC3 lung tumors): 25%
reduction of tumor size ([6]; doxorubicin 5 mg/kg alone): ~80%
% Apoptotic cells per tumor [6, 9]: 29 ± 16 %
Density of nonapoptotic cells in residual tumors, cells/field [6, 9]: 77 ± 17 cells/field
% Lung surface area occupied by tumor [6, 10]: 2 ± 1 %
% Tumor-free animals [6, 10]: 0%
Remaining cell number at 72 hours (% of control) ([2]; drug concentration 20 NM): 84%
Remaining cell number at 72 hours × 10^6 ([2]; drug concentration 20 NM): 2.1 × 10^6
Extracellular LDH, % of control ([2]; drug concentration 20 NM): 119 % of control
Extracellular bFGF, % of control ([2]; drug concentration 20 NM): 124 % of control
Extracellular concentration bFGF ([2]; drug concentration 20 NM): 5.87 pg/mL
Remaining cell number at 72 hours (% of control) ([2]; drug concentration 60 NM): 48%
Remaining cell number at 72 hours × 10^6 ([2]; drug concentration 60 NM): 1.2 × 10^6
Extracellular LDH, % of control ([2]; drug concentration 60 NM): 173 % of control
Extracellular bFGF, % of control ([2]; drug concentration 60 NM): 239 % of control
Extracellular concentration bFGF ([2]; drug concentration 60 NM): 11.3 pg/mL
Remaining cell number at 72 hours (% of control) ([2]; drug concentration 200 NM): 16%
Remaining cell number at 72 hours × 10^6 ([2]; drug concentration 200 NM): 0.4 × 10^6
Extracellular LDH, % of control ([2]; drug concentration 200 NM): 316 % of control
Extracellular bFGF, % of control ([2]; drug concentration 200 NM): 461 % of control
Extracellular concentration bFGF ([2]; drug concentration 200 NM): 21.8 pg/mL
IC50 [7, 11]: 292 nM
IC50 [7, 12]: 544 nM
IC50 ([8]; Histocultures, Lymph node, 96 hours, read-out: Concentration producing 50% inhibition): 165 ± 66 nM

CC(=O)O[C@H]1C(=O)[C@@]2(C)[C@H]([C@H](OC(=O)c3ccccc3)[C@]3(O)C[C@H](OC(=O)[C@H](O)[C@@H](NC(=O)c4ccccc4)c4ccccc4)C(C)=C1C3(C)C)[C@]1(OC(C)=O)CO[C@@H]1C[C@@H]2O [Paclitaxel]
IC50 [3]: 8 nM
IC50 (rat MAT-LyLu tumor cells [5]): 14 nM
IC30 [1, 13]: > 1800 nM
increase of the fraction of apoptotic cells ([6]; paclitaxel 15 mg/kg alone): 13 fold
reduction of the density of nonapoptotic cells ([6]; paclitaxel 15 mg/kg alone): ~70%
% Apoptotic cells per tumor [6, 14]: 53 ± 24 %
Density of nonapoptotic cells in residual tumors, cells/field [6, 14]: 49 ± 35 cells/field
Remaining cell number at 72 hours (% of control) ([2]; drug concentration 2.5 NM): 87%
Remaining cell number at 72 hours × 10^6 ([2]; drug concentration 2.5 NM): 2.0 × 10^6
Extracellular bFGF, % of control ([2]; drug concentration 2.5 NM): 347 % of control
Extracellular concentration bFGF ([2]; drug concentration 2.5 NM): 19.5 pg/mL
Remaining cell number at 72 hours (% of control) ([2]; drug concentration 5 NM): 43%
Remaining cell number at 72 hours × 10^6 ([2]; drug concentration 5 NM): 1.0 × 10^6
Extracellular LDH, % of control ([2]; drug concentration 5 NM): 437 % of control
Extracellular bFGF, % of control ([2]; drug concentration 5 NM): 1358 % of control
Extracellular concentration bFGF ([2]; drug concentration 5 NM): 76.3 pg/mL
Remaining cell number at 72 hours (% of control) ([2]; drug concentration 10 NM): 22%
Remaining cell number at 72 hours × 10^6 ([2]; drug concentration 10 NM): 0.5 × 10^6
Extracellular LDH, % of control ([2]; drug concentration 10 NM): 705 % of control
Extracellular bFGF, % of control ([2]; drug concentration 10 NM): 2917 % of control
Extracellular concentration bFGF ([2]; drug concentration 10 NM): 164 pg/mL
IC50 [7, 11]: 491 nM
IC50 [7, 12]: 1450 nM
IC30 (concentration producing 30% inhibition) [8, 13]: > 227 nM
